Assay results published in patent EP3666770A1, “NOVEL HETEROCYCLIC COMPOUNDS AS CDK8/19 INHIBITORS” (Joint Stock Company "Biocad", priority 2017, dated 2019).
“And” between values parts separate entries of the source, which are not always exact repeats. Equal entries are not always repeated. Where two headings read alike, the source gives them in different places.

How the values were obtained:
[1] = Permeability through Caco-2 cell monolayer; assay type: in vitro ADME; conditions: human, Caco-2; for Papp A→B at 2 h, 10 µM: A->B transfer, pH 6.5 -> pH 7.4, 2 hours at 37 °C; for efflux ratio at 2 h, 10 µM: efflux = Papp B-A / Papp A-B
Procedure: Estimation of permeability through Caco-2 cell monolayer enables assessment of the ability of the substances to penetrate through biological membranes by means of both active and passive transport.
Intestinal epithelial cells Caco-2 were grown on filter inserts (pore size 0.4 µm, BD Falcon with High Density) for 21 days; monolayer integrity was then checked using Lucifer Yellow (Sigma-Aldrich, USA) according to the standard protocol. In A->B transfer ("intestinal lumen" - "blood stream" transfer), solutions of the test substances in buffer, pH 6.5 (HBSS, 10 mM HEPES, 15 mM glucose) at a concentration of 10 µM were added to the upper chamber; whereas the lower chamber was filled with buffer, pH 7.4 (HBSS, 10 mM HEPES, 15 mM Glucose, 1% BSA). In B->A transfer ("blood stream" - "intestinal lumen" transfer), the upper chamber was filled with buffer, pH 6.5, whereas the solutions of the test substances in buffer, pH 7.4, at a concentration of 10 µM were added to the lower chamber. A highly permeable substance propranolol was used as a control.
After 2 hours incubation at 37 ° C under an atmosphere containing 5% CO2, the amounts of the test substances in the upper and lower chambers were measured by HPLC using an Agilent1200 HPLC system (Agilent, USA), proteins were preliminarily precipitated with acetonitrile. Chromatographic analysis was performed in a gradient elution regime with a flow rate of 1 mL/min. The peak areas corresponding to the compounds were detected on chromatograms.
The value was calculated using the formula: efflux = Papp B−A /Papp A−B , [formula] where • Papp A-E - the value of permeability direct analysis A→ B; • Papp B-A - the value of the permeability of the reverse analysis B→ A.

[2] = Chemical stability in human blood plasma; assay type: in vitro ADME; conditions: pooled human blood plasma; 10 µM; 4 hours at 37°C; substance amount in % after thermostatting
Summary of the method: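 Pooled plasma from ten healthy human donors; compound diluted from 10 mM DMSO stock to 10 µm final and incubated 4 h at 37°C. After acetonitrile protein precipitation, HPLC peak areas before and after incubation were compared; value is % compound remaining.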

[3] = Enzyme stability in human liver microsomes; assay type: in vitro ADME; conditions: pH 7.4; 0,5 mg/mL pooled human liver microsomes; 10 µM compound; 37°C; pH=7,4
Summary of the method: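 Pooled human liver microsomes (0,5 mg/mL) incubated at 37 °C with 10 µM compound, 2 mM β-NAD and 4 mM MgCl2 in 0,1 M sodium phosphate, pH 7,4. Samples quenched with acetonitrile and analysed by HPLC. Elimination rate constant taken from the slope of log peak area versus time, giving t1/2 and CLint.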

[4] = General cytotoxicity test on HepG2 cells; assay type: cell-based; conditions: human, 72 h incubation, 200 to 0.78 µM, average values of several tests, read-out: Hep-G2 CC50, mkM
Procedure: Cell viability was assessed using the above method. Table 6. […] The results are presented as average values of activity obtained in several tests.

[5] = tested on: KG-1; test: Cell-based antiproliferative test (AlamarBlue), KG-1; conditions: Homo sapiens, KG-1; 120 h incubation; average values of several tests; read-out: KG-1 IC50, mkM
Procedure: (§1) Antiproliferative activity of CDK8 inhibitors according to the present invention was measured in a cell-based test on continuous cell cultures MV4-11 (biphenotypic myelomonocytic leukemia, ATCC® CRL-9591™), KG-1 (acute myeloid leukemia, ATCC® CCL-246™), HL-60 (acute promyelocytic leukemia, ATCC® CCL-240™) using a vital stain AlamarBlue (ThermoFisher, #DAL1100). The cells were grown in RPMI-1640 (PanEco, #C330p) medium with addition of 10% FBS (Gibco, #16140-071); washed and resuspended in culture medium with 10% FBS (Gibco, #16140-071) in 96-well culture plates (Corning, #3599) with ≈ 10 ×10^3 cells in […] of medium per well. The compounds in question were dissolved in DMSO and diluted with a medium with 10% FBS (Gibco, #16140-071) to a final concentration ranging form 0 to 100 µM. […] of diluted compounds were then added to each well (final DMSO concentration was less than 1%) and incubated under 5% CO2 atmosphere at 37°C for 120 h. After incubating, 15 µL of AlamarBlue (ThermoFisher, #DAL1100) reagent was added per well, contents of plates were mixed in an orbital shaker (Biosan, Latvia) and further incubated for 3-5 h at 37°C under 5% CO2 atmosphere. Number of living cells was estimated using a microplate spectrophotometer (Tecan Infinite M200Pro, Switzerland) measuring fluorescent signal at the excitation wavelength (λEx) of 540 nm and emission wavelength (λEm) of 590 nm.
(§2) IC50 was calculated using Magellan 7.2 software (Tecan, Switzerland) approximating experimental points by four-parameter logistic model with the optimization by Levenberg-Marquardt (table 7, table 7).

[6] = Chemical stability in simulated gastric fluid (SGF); assay type: physicochemical; conditions: SGF without enzymes, pH=1,4; 10 µm; 2 hours at 37°C; substance amount in % after thermostatting
Summary of the method: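 Compounds at […] (diluted from DMSO stock) were incubated for 2 h at 37 °C in enzyme-free simulated gastric fluid, pH=1,4. HPLC peak areas before and after incubation gave the % of compound remaining.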

[7] = tested on: MV4-11; test: Cell-based antiproliferative test (AlamarBlue), MV4-11; conditions: Homo sapiens, MV4-11, 120 h, 120 h incubation; average values of several tests; read-out: MV-4-11 IC50, mkM
[8] = tested on: HL-60; test: Cell-based antiproliferative test (AlamarBlue), HL-60; conditions: 120 h incubation, average values of several tests, read-out: HL-60 IC50, mkM
Procedure: as §1, §2

| Compound | Papp A→B at 2 h, 10 µM [1] [×10⁻⁶ cm/s] | efflux ratio at 2 h, 10 µM [1] | Stability in blood plasma, % [2] [%] | microsomal CLint at 10 µM [3] [µL/min/mg] | CC50 at 72 h ([4]; HepG2 cells) [µM] | IC50 [5] [µM] | Stability in SGF, % [6] | IC50 [7] [µM] | IC50 ([8]; Homo sapiens, HL-60, 120 h) [µM] | CC50 at 72 h [4] [µM] | IC50 [8] [µM] |
| --- | --- | --- | --- | --- | --- | --- | --- | --- | --- | --- | --- |
| O=C(c1ccc2ncn(-c3ccc(-c4cn[nH]c4)cc3)c2c1)N1CCCCC1 [CDK8-1-3, (1-(4-(1H-Pyrazol-4-yl)phenyl)-1H-benzo[d]imidazol-6-yl)(piperidin-1-yl) methanone] | 64.1 | 0.44 | 97.7 | 24.8 | 59.1 | 27.6 | 100% | 2.08 | 81.4 | – | – |
| O=C(c1ccc2ncn(-c3ccc(-c4cn[nH]c4)cc3)c2c1)N1CCC1 [CDK8-1-5, (1-(4-(1H-Pyrazol-4-yl)phenyl)-1H-benzo[d]imidazol-6-yl)(azetidin-1-yl) methanone] | – | – | 98.1 | – | 81.1 | 4.71 | 99.5% | 1.24 | > 60 | – | – |
| NC(=O)c1ccc(-n2cnc3ccc(N4CC(C(=O)Nc5ccccc5)C4)cc32)cc1 [CDK8-1-6, 1-(1-(4-Carbamoylphenyl)-1H-benzo[d]imidazol-6-yl)-N-phenylazetidine-3-carboxamide] | – | – | 100 | 23.4 | > 100 | > 10 | 98.9% | 1.64 | 8.18 | – | – |
| O=C(C1CN(c2ccc3ncn(-c4ccc(-c5cn[nH]c5)cc4)c3c2F)C1)N1CCOCC1 [CDK8-1-14, (1-(1-(4-(1H-Pyrazol-4-yl)phenyl)-7-fluoro-1H-benzo[d]imidazol-6-yl)azetidin-3-yl)(morpholino)methanone] | 39.9 | 0.79 | 100 | 12.4 | > 100 | 23.2 | 92.5% and 100% | – | 33.9 | > 50 | 60.7 |
| Cn1cc(-c2ccc(-n3cnc4ccc(C(=O)N5CCC5)cc43)cc2)cn1 [CDK8-1-18, Azetidin-1-yl(1-(4-(1-methyl-1H-pyrazol-4-yl)phenyl)-1H-benzo[d]imidazol-6-yl) methanone] | – | – | 100 | 14.6 | > 100 | 2.13 | 100% | 4.8 | > 100 | – | – |
| COC1CN(C(=O)c2cnc3cncc(-c4ccc(-c5cnn(C)c5)cc4)c3c2)C1 [CDK8-3-15, (3-Methoxyazetidin-1-yl)(5-(4-(1-methyl-1H-pyrazol-4-yl)phenyl)-1,7-naphthyridin-3-yl) methanone] | – | – | 75.1 | 15.2 | > 100 | 1.13 | 99.3% | 2.45 | > 60 | – | – |
| Cn1cc(-c2ccc(-c3cncc4ncc(C(=O)N5CCCC5)cc34)cc2)cn1 [CDK8-3-16, (5-(4-(1-Methyl-1H-pyrazol-4-yl)phenyl)-1,7-naphthyridin-3 - yl)(pyrrolidin-1-yl) methanone] | – | – | 100 | 27.8 | > 100 | 0.94 | 100% | 2.87 | > 60 | – | – |
| Cn1cc(-c2ccc(-c3cncc4ncc(N5CCCC5=O)cc34)cc2)cn1 [CDK8-3-17, 1-(5-(4-(1-Methyl-1H-pyrazol-4-yl)phenyl)-1,7-naphthyridin-3-yl)pyrrolidin-2-one] | – | – | 100 | 10.7 | > 20 | 3.93 | 100% | 8.85 | 46.5 | – | – |
| COc1cccc(C(=O)c2c[nH]c3ncc(-c4ccc(N(C)C)cc4)cc23)c1 [CDK8-4-34, (5-(4-(Dimethylamino)phenyl)-1H-pyrrolo[2,3-b]pyridin-3-yl) (3-methoxyphenyl) methanone] | – | – | 100 | 24.2 | 2.6 | 0.2 | 99.5% | 0.14 | 0.081 | – | – |
| Cn1cc(-c2ccc(-c3ccc4nccc(C(=O)N5CCCCC5)c4c3)cc2)cn1 [CDK8-5-8, (6-(4-(1-Methyl-1H-pyrazol-4-yl)phenyl)quinolin-4-yl) (piperidin-1-yl)methanone] | – | – | 98.2 | – | > 50 | 17.5 | 100% | 3.73 | 24.8 | – | – |
| Cn1cc(-c2ccc(-c3ccnc4ccc(N5CCCC5=O)cc34)cc2)cn1 [CDK8-6-13, 1-(4-(4-(1-Methyl-1H-pyrazol-4-yl)phenyl)quinolin-6-yl) pyrrolidin-2-one] | – | – | 98.9 | 22.6 | > 200 | 12.3 | 99.7% | 19.7 | > 60 | – | – |
